Measurements taken from patent publication US10399937B2, “Ionizable cationic lipid for RNA delivery” (Arcturus Therapeutics, Inc., priority 2013, dated 2019).

Key:
[1] = pKa of the cationic lipid (Table 1); format: physicochemical
Factor VII = assay: In vivo mouse Factor VII silencing (siRNA in liposome formulations with the cationic lipid); set-up: species or system C57BL/6 mice; details: C57BL6 mice; for ability to knockdown Factor VII in mouse plasma (FIGS. 1 and 2): 0.3 mg/kg, compared to controls (MC3, NC1, ATX-547, ATX-003); for Factor VII knockdown in mouse plasma (FIGS. 3 and 4): second series with MC3, NC1, ATX-547, ATX-004, ATX-006, ATX-010, ATX-001
Description: Using a liver-directed in vivo screen of the liposome libraries, a series of compounds were tested that facilitate high levels of siRNA mediated gene silencing in hepatocytes, the cells comprising the liver parenchyma. Factor VII, a blood clotting factor, is a suitable target gene for assaying functional siRNA delivery to liver. Because this factor is produced specifically in hepatocytes, gene silencing indicates successful delivery to parenchyma, as opposed to delivery to the cells of the reticulo-endothelial system (e.g., Kupffer cells). Furthermore, Factor VII is a secreted protein that can be readily measured in serum, obviating the need to euthanize animals. Silencing at the mRNA level can be readily determined by measuring levels of protein. This is because the protein's short half-life (2-5 hour). C57BL/6 mice (Charles River Labs) received either saline or siRNA in liposome formulations via tail vein injection at a volume of 0.006 ml/g. At 48 h after administration, animals were anesthetized by isofluorane inhalation and blood was collected into serum separator tubes by retroorbital bleed. Serum levels of Factor VII protein were determined in samples using a chromogenic assay (Biophen FVII, Aniara Corporation) according to manufacturers' protocols. A standard curve was generated using serum collected from saline-treated animals.
Compositions with siRNA directed to […] were formulated with ATX-001, ATX-002, ATX-003, and ATX-547, and comparator samples NC1 and MC3 (Alnylam). These were injected into animals at 0.3 mg/kg and at 1 mg/kg. The siRNA encapsulated by MC3 (0.3 mg/kg), NC1 (0.3 mg/kg), ATX-547 (0.3 mg/kg), ATX-001 (0.3 and 1.0 mg/kg), ATX-002 (0.3 and 1.0 mg/kg), and ATX-003 (0.3 and 1.0 mg/kg) was measured for the ability to knockdown Factor VII in mouse plasma following administration of the siRNA formulation to C57BL6 mice.
The siRNA encapsulated MC3 (0.3 and 1.5 mg/kg), NC1 (0.3 mg/kg), ATX-547 (0.1 and 0.3 mg/kg), ATX-004 (0.3), ATX-006 (0.3 and 1.0 mg/kg), ATX-010 (0.3 mg/kg), and ATX-001 (0.3 and 1.5 mg/kg), was measured for Factor VII knockdown in mouse plasma following administration of the siRNA formulation to C57BL6 mice. […] The knockdown activity of the exemplary compounds is shown for 0.3 mg/kg or at 0.05 mg/kg for ATX-018, ATX-019, and ATX-020 (Table 1).

| Compound | pKa [1] | ability to knockdown Factor VII in mouse plasma (FIGS. 1 and 2) (Factor VII) | Factor VII knockdown in mouse plasma (FIGS. 3 and 4) (Factor VII) |
| --- | --- | --- | --- |
| CCCCCC/C=C\COC(=O)CCCCCCCN(CCCCCCCC(=O)OC/C=C\CCCCCC)C(=O)CSCCN(CC)CC [ATX-006] | 9.8 |  |  |
| CCCCCC/C=C\COC(=O)CCCCCCCN(CCCCCCCC(=O)OC/C=C\CCCCCC)C(=O)CSCCN(C)C [ATX-001] | 8.9 | most effective | most effective |
| CCCCCC/C=C\COC(=O)CCCCCCCN(CCCCCCCC(=O)OC/C=C\CCCCCC)C(=O)CSCCCN(CC)CC [ATX-008] | 10.3 |  |  |
| CCCCCC/C=C\COC(=O)CCCCCCCN(CCCCCCCC(=O)OC/C=C\CCCCCC)C(=O)SCCCN(CC)CC [ATX-012] | 10.2 |  |  |
| CCCCCC/C=C\COC(=O)CCCCCCCN(CCCCCCCC(=O)OC/C=C\CCCCCC)C(=O)SCCCN(C)CC [ATX-011] | 9.4 |  |  |
| CCCCCC/C=C\COC(=O)CCCCCCCN(CCCCCCCC(=O)OC/C=C\CCCCCC)C(=O)SCCN(CC)CC [ATX-010] | 9.6 |  | most effective |
| CCCCCC/C=C\COC(=O)CCCCCCCN(CCCCCCCC(=O)OC/C=C\CCCCCC)C(=O)CSCCN(C)CC [ATX-005] | 9 |  |  |
| CCCCCC/C=C\COC(=O)CCCCCCCN(CCCCCCCC(=O)OC/C=C\CCCCCC)C(=O)CSCCCN(C)C [ATX-004] | 9.4 |  |  |
| CCCCCC/C=C\COC(=O)CCCCCCCN(CCCCCCCC(=O)OC/C=C\CCCCCC)C(=O)SCCN(C)C [ATX-002] | 8.7 | most effective |  |
| CCCCCC/C=C\COC(=O)CCCCCCCN(CCCCCCCC(=O)OC/C=C\CCCCCC)C(=O)CSCCCN(C)CC [ATX-007] | 9.5 |  |  |
| CCCCCC/C=C\COC(=O)CCCCCCCN(CCCCCCCC(=O)OC/C=C\CCCCCC)C(=O)SCCN(C)CC [ATX-009] | 8.8 |  |  |
| CCCCCC/C=C\COC(=O)CCCCCCCN(CCCCCCCC(=O)OC/C=C\CCCCCC)C(=O)SCCCN(C)C [ATX-003] | 9.3 |  |  |
